System: Kv2.1 channel
Experiment: whole-cell patch clamp in CHO-Kv2.[…] cells
Format: cell-based

IC50: 9.53 µM
Structure (SMILES): CCN(CC)CCOC(=O)C(c1ccccc1)C1CCCCC1 (stereo not shown) [Dfe, drofenine]

Source: article PMC7559245 (iScience, 2020)
